# ChEMBL document CHEMBL1926576, “Fragment based lead discovery of small molecule inhibitors for the EPHA4 receptor tyrosine kinase” (Eur J Med Chem, 2012)
# Columns and labels:
# [1] = target: Mitogen-activated protein kinase 1 (Homo sapiens) (UniProt P28482); assay: Inhibition of ERK2 assessed as residual activity at 10 uM using [33P-ATP] by radiometric filter binding assay
# [2] = target: Serine/threonine-protein kinase BRSK1 (Homo sapiens) (UniProt Q8TDC3); assay: Inhibition of BRSK1 assessed as residual activity at 10 uM using [33P-ATP] by radiometric filter binding assay
# [3] = target: Eukaryotic translation initiation factor 2-alpha kinase 3 (Homo sapiens) (UniProt Q9NZJ5); assay: Inhibition of EIF2AK3 assessed as residual activity at 10 uM using [33P-ATP] by radiometric filter binding assay
# [4] = target: Homeodomain-interacting protein kinase 1 (Homo sapiens) (UniProt Q86Z02); assay: Inhibition of HIPK1 assessed as residual activity at 10 uM using [33P-ATP] by radiometric filter binding assay
# [5] = target: Dual specificity tyrosine-phosphorylation-regulated kinase 1A (Homo sapiens) (UniProt Q13627); assay: Inhibition of DYRK1A assessed as residual activity at 10 uM using [33P-ATP] by radiometric filter binding assay
# [6] = target: Calcium/calmodulin-dependent protein kinase type 1 (Homo sapiens) (UniProt Q14012); assay: Inhibition of CAMK1 assessed as residual activity at 10 uM using [33P-ATP] by radiometric filter binding assay
# [7] = target: MAP kinase-interacting serine/threonine-protein kinase 1 (Homo sapiens) (UniProt Q9BUB5); assay: Inhibition of MNK1 assessed as residual activity at 10 uM using [33P-ATP] by radiometric filter binding assay
# [8] = Inhibition of AMPK assessed as residual activity at 10 uM using [33P-ATP] by radiometric filter binding assay
# [9] = target: Dual specificity protein kinase TTK (Homo sapiens) (UniProt P33981); assay: Inhibition of TTK assessed as residual activity at 10 uM using [33P-ATP] by radiometric filter binding assay
# [10] = target: Casein kinase I isoform alpha (Homo sapiens) (UniProt P48729); assay: Inhibition of CK1 assessed as residual activity at 10 uM using [33P-ATP] by radiometric filter binding assay
# Casein kinase I isoform alpha (Homo sapiens), sequence (P48729 2-337 limits assumed): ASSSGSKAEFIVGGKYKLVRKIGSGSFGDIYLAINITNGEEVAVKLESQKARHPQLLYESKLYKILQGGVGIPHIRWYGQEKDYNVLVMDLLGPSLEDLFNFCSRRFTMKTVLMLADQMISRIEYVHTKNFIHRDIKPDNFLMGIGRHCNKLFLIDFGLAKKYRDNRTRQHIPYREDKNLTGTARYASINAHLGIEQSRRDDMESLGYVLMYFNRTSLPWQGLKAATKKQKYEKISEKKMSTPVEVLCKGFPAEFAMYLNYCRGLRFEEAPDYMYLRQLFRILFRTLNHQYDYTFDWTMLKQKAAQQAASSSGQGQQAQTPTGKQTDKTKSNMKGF
# [11] = target: Mitogen-activated protein kinase 10 (Homo sapiens) (UniProt P53779); assay: Inhibition of JNK3 assessed as residual activity at 10 uM using [33P-ATP] by radiometric filter binding assay
# [12] = target: Tyrosine-protein kinase SYK (Homo sapiens) (UniProt P43405); assay: Inhibition of SYK assessed as residual activity at 10 uM using [33P-ATP] by radiometric filter binding assay
# [13] = target: Serine/threonine-protein kinase OSR1 (Homo sapiens) (UniProt O95747); assay: Inhibition of OSR1 assessed as residual activity at 10 uM using [33P-ATP] by radiometric filter binding assay
# [14] = target: Protein-tyrosine kinase 6 (Homo sapiens) (UniProt Q13882); assay: Inhibition of BRK assessed as residual activity at 10 uM using [33P-ATP] by radiometric filter binding assay
# [15] = target: Serine/threonine-protein kinase Chk1 (Homo sapiens) (UniProt O14757); assay: Inhibition of CHK1 assessed as residual activity at 10 uM using [33P-ATP] by radiometric filter binding assay
# Serine/threonine-protein kinase Chk1 (Homo sapiens), sequence (O14757 whole entry): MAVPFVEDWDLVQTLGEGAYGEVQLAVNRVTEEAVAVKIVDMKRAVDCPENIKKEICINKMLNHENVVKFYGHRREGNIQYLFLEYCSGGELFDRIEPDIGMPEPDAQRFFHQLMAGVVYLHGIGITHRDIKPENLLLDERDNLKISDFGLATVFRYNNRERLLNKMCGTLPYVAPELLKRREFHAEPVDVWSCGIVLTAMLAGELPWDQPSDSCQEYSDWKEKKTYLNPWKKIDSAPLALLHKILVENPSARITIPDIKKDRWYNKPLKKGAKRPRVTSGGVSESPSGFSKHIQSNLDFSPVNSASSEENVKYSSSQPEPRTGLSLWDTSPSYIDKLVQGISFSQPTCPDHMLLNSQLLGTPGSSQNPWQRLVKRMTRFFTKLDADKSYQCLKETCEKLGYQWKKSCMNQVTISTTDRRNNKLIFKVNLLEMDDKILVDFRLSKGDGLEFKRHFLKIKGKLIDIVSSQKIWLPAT
# [16] = target: Mitogen-activated protein kinase 14 (Homo sapiens) (UniProt Q16539); assay: Inhibition of p38alpha MAPK assessed as residual activity at 10 uM using [33P-ATP] by radiometric filter binding assay
# [17] = target: Serine/threonine-protein kinase TAO1 (Homo sapiens) (UniProt Q7L7X3); assay: Inhibition of TAO1 assessed as residual activity at 10 uM using [33P-ATP] by radiometric filter binding assay
# [18] = target: Proto-oncogene tyrosine-protein kinase Src (Homo sapiens) (UniProt P12931); assay: Inhibition of Src assessed as residual activity at 10 uM using [33P-ATP] by radiometric filter binding assay
# [19] = target: Testis-specific serine/threonine-protein kinase 1 (Homo sapiens) (UniProt Q9BXA7); assay: Inhibition of TSSK1 assessed as residual activity at 10 uM using [33P-ATP] by radiometric filter binding assay
# [20] = target: Mitogen-activated protein kinase 11 (Homo sapiens) (UniProt Q15759); assay: Inhibition of p38beta MAPK assessed as residual activity at 10 uM using [33P-ATP] by radiometric filter binding assay
# Mitogen-activated protein kinase 11 (Homo sapiens), sequence (Q15759 whole entry): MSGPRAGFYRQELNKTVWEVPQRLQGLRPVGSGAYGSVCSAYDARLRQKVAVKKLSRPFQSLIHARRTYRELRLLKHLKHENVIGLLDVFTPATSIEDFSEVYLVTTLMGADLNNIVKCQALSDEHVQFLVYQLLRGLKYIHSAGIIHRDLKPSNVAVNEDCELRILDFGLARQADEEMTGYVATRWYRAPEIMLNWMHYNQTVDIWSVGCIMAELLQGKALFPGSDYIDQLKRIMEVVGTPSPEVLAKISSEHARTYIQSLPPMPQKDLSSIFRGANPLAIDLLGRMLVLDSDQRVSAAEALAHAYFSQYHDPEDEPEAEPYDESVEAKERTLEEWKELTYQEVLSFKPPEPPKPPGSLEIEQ
# [21] = target: Aurora kinase B (Homo sapiens) (UniProt Q96GD4); assay: Inhibition of aurora-B assessed as residual activity at 10 uM using [33P-ATP] by radiometric filter binding assay
# [22] = target: Dual specificity mitogen-activated protein kinase kinase 1 (Homo sapiens) (UniProt Q02750); assay: Inhibition of MKK1 assessed as residual activity at 10 uM using [33P-ATP] by radiometric filter binding assay
# [23] = target: Insulin receptor (Homo sapiens) (UniProt P06213); assay: Inhibition of IR assessed as residual activity at 10 uM using [33P-ATP] by radiometric filter binding assay
# Insulin receptor (Homo sapiens), sequence (P06213 28-758 limits assumed): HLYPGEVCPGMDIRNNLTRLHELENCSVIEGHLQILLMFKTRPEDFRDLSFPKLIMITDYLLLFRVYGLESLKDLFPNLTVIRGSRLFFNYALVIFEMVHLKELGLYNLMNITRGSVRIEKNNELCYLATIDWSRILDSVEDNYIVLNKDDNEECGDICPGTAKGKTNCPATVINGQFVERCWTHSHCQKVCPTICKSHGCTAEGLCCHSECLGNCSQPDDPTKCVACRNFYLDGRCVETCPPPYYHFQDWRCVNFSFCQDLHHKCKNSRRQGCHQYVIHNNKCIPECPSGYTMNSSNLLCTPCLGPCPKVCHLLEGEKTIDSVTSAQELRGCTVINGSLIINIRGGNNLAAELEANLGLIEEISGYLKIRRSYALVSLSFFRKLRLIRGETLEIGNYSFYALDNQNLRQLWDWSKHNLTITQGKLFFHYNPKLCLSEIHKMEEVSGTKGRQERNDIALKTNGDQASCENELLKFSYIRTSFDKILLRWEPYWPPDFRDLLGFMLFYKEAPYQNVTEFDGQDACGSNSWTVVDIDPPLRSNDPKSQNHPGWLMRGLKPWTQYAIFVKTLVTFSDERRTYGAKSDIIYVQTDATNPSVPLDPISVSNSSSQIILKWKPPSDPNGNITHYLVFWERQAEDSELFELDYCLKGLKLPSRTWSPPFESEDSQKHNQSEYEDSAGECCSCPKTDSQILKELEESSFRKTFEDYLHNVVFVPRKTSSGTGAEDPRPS
# Insulin receptor (Homo sapiens), sequence (P06213 763-1382 limits assumed): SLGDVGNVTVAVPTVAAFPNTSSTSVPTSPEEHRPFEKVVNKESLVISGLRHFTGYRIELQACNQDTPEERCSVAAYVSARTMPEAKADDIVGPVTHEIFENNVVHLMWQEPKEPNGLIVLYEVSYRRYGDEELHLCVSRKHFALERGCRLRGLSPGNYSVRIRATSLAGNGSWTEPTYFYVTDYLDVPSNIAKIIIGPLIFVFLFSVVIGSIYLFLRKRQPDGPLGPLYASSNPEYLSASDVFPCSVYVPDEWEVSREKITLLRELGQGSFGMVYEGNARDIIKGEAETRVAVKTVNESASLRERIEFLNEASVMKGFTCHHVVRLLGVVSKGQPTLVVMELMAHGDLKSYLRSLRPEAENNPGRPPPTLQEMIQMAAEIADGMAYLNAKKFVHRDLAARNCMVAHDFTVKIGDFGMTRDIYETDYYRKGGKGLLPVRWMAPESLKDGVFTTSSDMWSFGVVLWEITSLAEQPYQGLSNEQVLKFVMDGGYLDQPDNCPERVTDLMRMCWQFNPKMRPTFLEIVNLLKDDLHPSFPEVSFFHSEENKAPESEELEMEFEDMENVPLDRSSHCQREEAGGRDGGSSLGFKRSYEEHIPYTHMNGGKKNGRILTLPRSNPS
# [24] = target: High affinity nerve growth factor receptor (Homo sapiens) (UniProt P04629); assay: Inhibition of TrkA assessed as residual activity at 10 uM using [33P-ATP] by radiometric filter binding assay
# [25] = target: Tyrosine-protein kinase Yes (Homo sapiens) (UniProt P07947); assay: Inhibition of YES1 assessed as residual activity at 10 uM using [33P-ATP] by radiometric filter binding assay
# [26] = target: Serine/threonine-protein kinase tousled-like 1 (Homo sapiens) (UniProt Q9UKI8); assay: Inhibition of TLK1 assessed as residual activity at 10 uM using [33P-ATP] by radiometric filter binding assay
# [27] = target: Serine/threonine-protein kinase PAK 5 (Homo sapiens) (UniProt Q9P286); assay: Inhibition of PAK5 assessed as residual activity at 10 uM using [33P-ATP] by radiometric filter binding assay
# [28] = target: MAP/microtubule affinity-regulating kinase 3 (Homo sapiens) (UniProt P27448); assay: Inhibition of MARK3 assessed as residual activity at 10 uM using [33P-ATP] by radiometric filter binding assay
# MAP/microtubule affinity-regulating kinase 3 (Homo sapiens), sequence (P27448 whole entry, looked up): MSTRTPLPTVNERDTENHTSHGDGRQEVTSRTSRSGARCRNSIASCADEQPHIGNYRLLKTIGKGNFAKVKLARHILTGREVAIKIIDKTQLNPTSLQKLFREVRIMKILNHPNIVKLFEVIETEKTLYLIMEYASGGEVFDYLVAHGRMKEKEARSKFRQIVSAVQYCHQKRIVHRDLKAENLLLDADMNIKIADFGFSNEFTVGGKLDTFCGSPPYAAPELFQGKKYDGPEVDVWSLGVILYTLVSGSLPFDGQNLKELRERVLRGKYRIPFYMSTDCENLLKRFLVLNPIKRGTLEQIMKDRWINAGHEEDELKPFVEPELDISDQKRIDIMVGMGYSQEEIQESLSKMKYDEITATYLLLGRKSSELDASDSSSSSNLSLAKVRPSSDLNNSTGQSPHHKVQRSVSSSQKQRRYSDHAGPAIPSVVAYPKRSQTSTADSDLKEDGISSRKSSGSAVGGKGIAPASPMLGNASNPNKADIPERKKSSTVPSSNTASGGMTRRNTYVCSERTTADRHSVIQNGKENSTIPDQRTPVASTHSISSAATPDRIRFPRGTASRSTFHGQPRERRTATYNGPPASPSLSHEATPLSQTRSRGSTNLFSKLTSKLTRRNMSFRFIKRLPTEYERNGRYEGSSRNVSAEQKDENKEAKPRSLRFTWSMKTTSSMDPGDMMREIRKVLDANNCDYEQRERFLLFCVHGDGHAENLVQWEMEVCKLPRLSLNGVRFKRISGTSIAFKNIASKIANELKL
# [29] = target: Serine/threonine-protein kinase 33 (Homo sapiens) (UniProt Q9BYT3); assay: Inhibition of STK33 assessed as residual activity at 10 uM using [33P-ATP] by radiometric filter binding assay
# [30] = target: Glycogen synthase kinase-3 beta (Homo sapiens) (UniProt P49841); assay: Inhibition of GSK3b assessed as residual activity at 10 uM using [33P-ATP] by radiometric filter binding assay
# [31] = target: Protein kinase C zeta type (Homo sapiens) (UniProt Q05513); assay: Inhibition of PKCzeta assessed as residual activity at 10 uM using [33P-ATP] by radiometric filter binding assay
# Protein kinase C zeta type (Homo sapiens), sequence (Q05513 whole entry): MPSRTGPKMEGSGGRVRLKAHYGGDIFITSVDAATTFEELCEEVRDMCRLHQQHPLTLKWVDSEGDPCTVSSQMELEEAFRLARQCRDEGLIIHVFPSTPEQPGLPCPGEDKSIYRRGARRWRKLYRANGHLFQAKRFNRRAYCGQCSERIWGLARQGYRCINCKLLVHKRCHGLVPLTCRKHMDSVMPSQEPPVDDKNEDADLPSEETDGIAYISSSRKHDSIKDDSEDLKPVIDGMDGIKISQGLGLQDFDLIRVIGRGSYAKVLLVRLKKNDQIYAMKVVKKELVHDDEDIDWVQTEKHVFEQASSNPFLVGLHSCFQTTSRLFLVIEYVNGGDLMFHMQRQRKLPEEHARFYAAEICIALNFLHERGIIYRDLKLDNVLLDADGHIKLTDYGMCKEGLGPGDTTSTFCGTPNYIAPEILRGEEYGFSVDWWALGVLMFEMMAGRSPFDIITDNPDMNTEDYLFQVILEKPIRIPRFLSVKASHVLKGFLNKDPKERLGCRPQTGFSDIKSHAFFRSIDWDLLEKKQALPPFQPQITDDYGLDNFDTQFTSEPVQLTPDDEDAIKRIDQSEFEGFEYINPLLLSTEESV
# [32] = target: MAP kinase-activated protein kinase 2 (Homo sapiens) (UniProt P49137); assay: Inhibition of MAPKAP-K2 assessed as residual activity at 10 uM using [33P-ATP] by radiometric filter binding assay
# [33] = target: Ribosomal protein S6 kinase alpha-1 (Homo sapiens) (UniProt Q15418); assay: Inhibition of RSK1 assessed as residual activity at 10 uM using [33P-ATP] by radiometric filter binding assay
# Ribosomal protein S6 kinase alpha-1 (Homo sapiens), sequence (Q15418 whole entry): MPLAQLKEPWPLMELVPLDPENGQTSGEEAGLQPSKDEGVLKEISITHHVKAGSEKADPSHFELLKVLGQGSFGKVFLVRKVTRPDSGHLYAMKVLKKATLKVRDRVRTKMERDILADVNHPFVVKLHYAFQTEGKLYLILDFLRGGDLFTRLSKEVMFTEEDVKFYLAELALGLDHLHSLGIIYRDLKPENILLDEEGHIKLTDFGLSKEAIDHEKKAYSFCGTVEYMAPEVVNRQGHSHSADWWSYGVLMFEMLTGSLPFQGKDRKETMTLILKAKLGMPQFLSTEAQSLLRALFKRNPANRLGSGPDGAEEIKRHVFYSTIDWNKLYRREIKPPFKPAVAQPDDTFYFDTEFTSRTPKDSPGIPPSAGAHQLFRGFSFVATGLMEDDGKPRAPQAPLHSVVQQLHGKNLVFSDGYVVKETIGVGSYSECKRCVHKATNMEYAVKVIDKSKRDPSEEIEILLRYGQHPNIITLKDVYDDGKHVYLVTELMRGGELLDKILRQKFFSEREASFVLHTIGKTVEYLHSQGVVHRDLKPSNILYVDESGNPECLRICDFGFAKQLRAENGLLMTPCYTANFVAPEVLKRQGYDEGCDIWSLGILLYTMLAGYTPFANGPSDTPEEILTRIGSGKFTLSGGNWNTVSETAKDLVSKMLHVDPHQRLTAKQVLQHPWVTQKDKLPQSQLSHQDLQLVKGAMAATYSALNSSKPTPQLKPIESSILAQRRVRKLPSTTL
# Mitogen-activated protein kinase 1 (Homo sapiens), sequence (P28482 whole entry): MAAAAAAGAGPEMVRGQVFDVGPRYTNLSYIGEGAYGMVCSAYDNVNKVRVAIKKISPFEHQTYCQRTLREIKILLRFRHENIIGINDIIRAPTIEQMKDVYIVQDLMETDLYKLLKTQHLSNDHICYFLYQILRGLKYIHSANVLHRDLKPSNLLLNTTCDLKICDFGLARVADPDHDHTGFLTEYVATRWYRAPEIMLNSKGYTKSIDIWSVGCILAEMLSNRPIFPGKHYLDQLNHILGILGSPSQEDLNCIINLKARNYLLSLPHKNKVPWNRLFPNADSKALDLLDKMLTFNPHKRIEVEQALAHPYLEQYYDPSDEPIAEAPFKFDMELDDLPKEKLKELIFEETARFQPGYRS
compound,measurement,setting,value
Cc1ccc(F)cc1-c1nc2[nH]nc(N)c2c2c1CCCC2,Activity,[1],98%
same,Activity,[2],52%
same,Activity,[3],82%
same,Activity,[4],124%
same,Activity,[5],60%
same,Activity,[6],75%
same,Activity,[7],78%
same,Activity,[8],86%
same,Activity,[9],81%
same,Activity,[10],96%
same,Activity,[11],72%
same,Activity,[12],76%
same,Activity,[13],81%
same,Activity,[14],71%
same,Activity,[15],100%
same,Activity,[16],54%
same,Activity,[17],37%
same,Activity,[18],25%
same,Activity,[19],75%
same,Activity,[20],25%
same,Activity,[21],49%
same,Activity,[22],29%
same,Activity,[23],83%
same,Activity,[24],45%
same,Activity,[25],18%
same,Activity,[26],99%
same,Activity,[27],92%
same,Activity,[28],81%
same,Activity,[29],97%
same,Activity,[30],73%
same,Activity,[31],106%
same,Activity,[32],89%
same,Activity,[33],93%
